Measured values reported in US7329657B2, “Indazolyl-substituted pyrroline compounds as kinase inhibitors” (Ortho-McNeil Pharmaceutical, Inc., priority 2000, dated 2008).

What was measured:
Assay type in all cases: biochemical
[1] = biological target: PKC α (Homo sapiens, UniProt P17252); test: Protein Kinase C Histone-Based Assay, α isoform; details: histone III substrate, 30 μM ATP, 10 min at 30° C.; read-out: PKC Activity (IC50 μM, Histone Based Assay) Alpha
Protocol: (§1) Compounds were evaluated for PKC selectivity using histone III as the substrate. […] The reaction was incubated for 10 min at 30° C. Reactions were terminated by TCA precipitation and spotting on Whatman P81 filters. Filters were washed in 75 mM phosphoric acid and the radioactivity quantified by liquid scintillation counting.

[2] = biological target: PKC β-II (Homo sapiens, UniProt P05771); test: Protein Kinase C Histone-Based Assay, β-II isoform; details: histone III substrate, 30 μM ATP, 10 min at 30° C.; read-out: PKC Activity (IC50 μM, Histone Based Assay) Beta II
Protocol: as §1

[3] = biological target: T1, recombinant rabbit GSK-3β protein (Oryctolagus cuniculus, UniProt G1T8E2); test: Glycogen Synthase Kinase-3 Assay; details: PPI-2 substrate, 33P-ATP, 90 minutes at 30° C.
T1 construct: purchased New England Biolabs
Protocol: Compounds were tested for the ability to inhibit recombinant rabbit GSK-3β protein using the following protocol. The test compound was added to a reaction mixture containing Protein phosphatase inhibitor-2 (PPI-2) (Calbiochem) (45 ng), rabbit GSK-3β protein (New England Biolabs) (0.75 units) and ^33P-ATP (1 μCi) in 50 mM Tris-HCl (pH 8.0), 10 mM MgCl2, 0.1% BSA, 1 mM DTT and 100 μM Sodium Vanadate. The mixture was reacted for 90 minutes at 30° C. to allow phosphorylation of the PPI-2 protein and then the protein in the reaction was precipitated using 10% TCA. The precipitated protein was collected on filter plates (MultiScreen-DV/Millipore), which were subsequently washed. Finally, the radioactivity was quantified using a TopCount Scintillation Counter (Packard).

[4] = biological target: PKC γ (Homo sapiens, UniProt P05129); test: Protein Kinase C Histone-Based Assay, γ isoform; details: histone III substrate, 30 μM ATP, 10 min at 30° C.; read-out: PKC Activity (IC50 μM, Histone Based Assay) Gamma
Protocol: as §1

Chain of PKC β-II (P05771 1-673 isoform P05771-2): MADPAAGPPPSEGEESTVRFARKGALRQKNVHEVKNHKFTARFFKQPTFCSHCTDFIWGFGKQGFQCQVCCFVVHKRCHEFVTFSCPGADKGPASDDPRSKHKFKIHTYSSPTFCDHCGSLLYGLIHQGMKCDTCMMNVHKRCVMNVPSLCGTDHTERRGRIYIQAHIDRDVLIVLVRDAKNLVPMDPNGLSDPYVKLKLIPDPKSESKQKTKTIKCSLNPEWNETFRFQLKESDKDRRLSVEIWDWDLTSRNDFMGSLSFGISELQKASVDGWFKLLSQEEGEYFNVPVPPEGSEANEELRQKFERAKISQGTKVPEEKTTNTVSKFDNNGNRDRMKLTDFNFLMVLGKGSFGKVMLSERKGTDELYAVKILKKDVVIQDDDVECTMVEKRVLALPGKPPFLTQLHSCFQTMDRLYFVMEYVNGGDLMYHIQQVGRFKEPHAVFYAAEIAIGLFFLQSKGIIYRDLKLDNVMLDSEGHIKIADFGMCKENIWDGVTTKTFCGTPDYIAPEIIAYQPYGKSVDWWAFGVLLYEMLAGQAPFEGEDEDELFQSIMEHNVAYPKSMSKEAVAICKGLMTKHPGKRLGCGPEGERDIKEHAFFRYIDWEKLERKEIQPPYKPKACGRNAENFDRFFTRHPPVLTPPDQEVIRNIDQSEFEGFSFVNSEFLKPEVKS
T1 sequence (G1T8E2 1-432): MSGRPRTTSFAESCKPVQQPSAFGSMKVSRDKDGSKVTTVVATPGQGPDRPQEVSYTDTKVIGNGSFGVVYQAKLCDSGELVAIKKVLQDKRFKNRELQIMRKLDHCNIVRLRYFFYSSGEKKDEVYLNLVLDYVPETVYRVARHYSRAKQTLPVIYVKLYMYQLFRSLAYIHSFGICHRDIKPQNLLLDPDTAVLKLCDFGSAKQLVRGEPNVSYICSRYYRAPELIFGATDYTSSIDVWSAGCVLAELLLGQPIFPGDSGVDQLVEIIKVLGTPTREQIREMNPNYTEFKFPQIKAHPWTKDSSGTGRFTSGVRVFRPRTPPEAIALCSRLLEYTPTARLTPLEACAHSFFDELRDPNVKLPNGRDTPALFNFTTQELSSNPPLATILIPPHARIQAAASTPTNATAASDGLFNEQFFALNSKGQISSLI

| Compound | IC50 [1] [µM] | IC50 [2] [µM] | IC50 [3] [µM] | IC50 [4] [µM] |
| --- | --- | --- | --- | --- |
| 3-(1-ethyl-1H-indol-3-yl)-4-[1-[3-(4-morpholinyl)propyl]-1H-indazol-3-yl]-1H-pyrrole-2,5-dione [Compound 69] | 0.25 | 0.014 | 0.018 | 0.55 |
| C=Cn1cc(C2=C(c3nn(CCCN(C)C)c4ccccc34)C(=O)NC2=O)c2ccccc21 [Compound 3, 3-[1-[3-(dimethylamino)propyl]-1H-indazol-3-yl]-4-(1-ethenyl-1H-indol-3-yl)-1H-pyrrole-2,5-dione] | 0.248 | 0.023 | 0.049 | 0.323 |
| C=Cn1cc(C2=C(c3nn(CCCN(C)C)c4ccccc34)C(=O)NC2=O)c2cc(Cl)ccc21 [Compound 6, 3-(5-chloro-1-ethenyl-1H-indol-3-yl)-4-[1-[3-(dimethylamino)propyl]-1H-indazol-3-yl]-1H-pyrrole-2,5-dione] | 0.105 | 0.013 | 0.048 | 0.129 |
| Cn1cc(C2=C(c3nn(CCCN4CCCC4)c4ccccc34)C(=O)NC2=O)c2cc(Cl)ccc21 [Compound 75, 3-(5-chloro-1-methyl-1H-indol-3-yl)-4-[1-[3-(1-pyrrolidinyl)propyl]-1H-indazol-3-yl]-1H-pyrrole-2,5-dione] | 0.204 | 0.01 | 0.033 | 0.175 |
| CN1CCN(CCCn2nc(C3=C(c4cn(C)c5ccc(Cl)cc45)C(=O)NC3=O)c3ccccc32)CC1 [Compound 77, 3-(5-chloro-1-methyl-1H-indol-3-yl)-4-[1-[3-(4-methyl-1-piperazinyl)propyl]-1H-indazol-3-yl]-1H-pyrrole-2,5-dione] | 0.354 | 0.046 | 0.043 | 0.89 |
| CNCCCn1nc(C2=C(c3cn(C)c4ccc(Cl)cc34)C(=O)NC2=O)c2ccccc21 [Compound 80, 3-(5-chloro-1-methyl-1H-indol-3-yl)-4-[1-[3-(methylamino)propyl]-1H-indazol-3-yl]-1H-pyrrole-2,5-dione] | 0.328 | 0.018 | 0.051 | 0.512 |
| O=C1NC(=O)C(c2nn(CCCO)c3ccccc23)=C1c1cn(-c2cccnc2)c2ccccc12 [Compound 94, 3-[1-(3-hydroxypropyl)-1H-indazol-3-yl]-4-[1-(3-pyridinyl)-1H-indol-3-yl]-1H-pyrrole-2,5-dione] | 0.306 | 0.011 | 0.058 | 0.411 |
| O=C1NC(=O)C(c2nn(CCOCCO)c3ccccc23)=C1c1cn(-c2cccnc2)c2ccccc12 [Compound 106, 3-[1-[2-(2-hydroxyethoxy)ethyl]-1H-indazol-3-yl]-4-[1-(3-pyridinyl)-1H-indol-3-yl]-1H-pyrrole-2,5-dione] |  |  | 0.033 |  |
| O=C1NC(=O)C(c2nn(CCO)c3ccccc23)=C1c1cn(-c2cccnc2)c2ccccc12 [Compound 110, 3-[1-(2-hydroxyethyl)-1H-indazol-3-yl]-4-[1-(3-pyridinyl)-1H-indol-3-yl]-1H-pyrrole-2,5-dione] |  |  | 0.075 |  |
| O=C1NC(=O)C(c2nn(CCCCO)c3ccccc23)=C1c1cn(-c2cccnc2)c2ccccc12 [Compound 111, 3-[1-(4-hydroxybutyl)-1H-indazol-3-yl]-4-[1-(3-pyridinyl)-1H-indol-3-yl]-1H-pyrrole-2,5-dione] |  |  | 0.04 |  |
| CN(CCO)CCCn1nc(C2=C(c3cn(-c4cccnc4)c4ccccc34)C(=O)NC2=O)c2ccccc21 [Compound 114, 3-[1-[3-[(2-hydroxyethyl)methylamino]propyl]-1H-indazol-3-yl]-4-[1-(3-pyridinyl)-1H-indol-3-yl]-1H-pyrrole-2,5-dione] | 0.047 | 0.004 | 0.155 | 0.038 |
| CC(C)(C)OC(=O)NCCCn1nc(C2=C(c3cn(-c4cccnc4)c4ccccc34)C(=O)NC2=O)c2ccccc21 [Compound 115, [3-[3-[2,5-dihydro-2,5-dioxo-4-[1-(3-pyridinyl)-1H-indol-3-yl]-1H-pyrrol-3-yl]-1H-indazol-1-yl]propyl]-carbamic acid 1,1-dimethylethyl ester] |  |  | 0.055 |  |
| O=C1NC(=O)C(c2cn(-c3cccnc3)c3ccccc23)=C1c1[nH]nc2ccccc12 [Compound 118, 3-(1H-indazol-3-yl)-4-[1-(3-pyridinyl)-1H-indol-3-yl]-1H-pyrrole-2,5-dione] |  |  | 0.2 |  |

Continued, values first:

| IC50 [1] [µM] | IC50 [2] [µM] | IC50 [3] [µM] | IC50 [4] [µM] | Compound |
| --- | --- | --- | --- | --- |
| 0.052 | 0.014 | 0.09 | 0.058 | C=Cn1cc(C2=C(c3nn(CC(O)CN(C)C)c4ccccc34)C(=O)NC2=O)c2ccccc21 (stereo not shown) [Compound 1, 3-[1-[3-(dimethylamino)-2-hydroxypropyl]-1H-indazol-3-yl]-4-(1-ethenyl-1H-indol-3-yl)-1H-pyrrole-2,5-dione] |
| 0.308 | 0.005 | 0.01 | 0.123 | CCn1cc(C2=C(c3nn(CCCN(C)C)c4ccccc34)C(=O)NC2=O)c2cc(Cl)ccc21 [Compound 46, 3-(5-chloro-1-ethyl-1H-indol-3-yl)-4-[1-[3-(dimethylamino)propyl]-1H-indazol-3-yl]-1H-pyrrole-2,5-dione] |
| 0.217 | 0.011 | 0.096 | 0.426 | O=C1NC(=O)C(c2nn(CCCN3CCOCC3)c3ccccc23)=C1c1cn(-c2cccnc2)c2ccccc12 [Compound 68, 3-[1-[3-(4-morpholinyl)propyl]-1H-indazol-3-yl]-4-[1-(3-pyridinyl)-1H-indol-3-yl]-1H-pyrrole-2,5-dione] |
| 0.94 | 0.016 | 0.041 | 0.53 | Cn1cc(C2=C(c3nn(CCCN4CCOCC4)c4ccccc34)C(=O)NC2=O)c2cc(Cl)ccc21 [Compound 78, 3-(5-chloro-1-methyl-1H-indol-3-yl)-4-[1-[3-(4-morpholinyl)propyl]-1H-indazol-3-yl]-1H-pyrrole-2,5-dione] |
| 0.065 | 0.007 | 0.014 | 0.074 | CN(CCO)CCCn1nc(C2=C(c3cn(C)c4ccc(Cl)cc34)C(=O)NC2=O)c2ccccc21 [Compound 79, 3-(5-chloro-1-methyl-1H-indol-3-yl)-4-[1-[3-[(2-hydroxyethyl)methylamino]propyl]-1H-indazol-3-yl]-1H-pyrrole-2,5-dione] |
| 0.098 | 0.009 | 0.82 | 0.018 | O=C1NC(=O)C(c2nn(CCCO)c3ccccc23)=C1c1cn(-c2cnc3ccccc3c2)c2ccccc12 [Compound 107, 3-[1-[3-hydroxypropyl]-1H-indazol-3-yl]-4-[1-(3-quinolinyl)-1H-indol-3-yl]-1H-pyrrole-2,5-dione] |
|  |  | 0.115 |  | O=CCCn1nc(C2=C(c3cn(-c4cccnc4)c4ccccc34)C(=O)NC2=O)c2ccccc21 [Compound 112, 1H-indazole-1-propanal, 3-[2,5-dihydro-2,5-dioxo-4-[1-(3-pyridinyl)-1H-indol-3-yl]-1H-pyrrol-3-yl]-1H-pyrrole-2,5-dione] |
|  | 0.034 | 0.07 |  | COCCCn1nc(C2=C(c3cn(-c4cccnc4)c4ccccc34)C(=O)NC2=O)c2ccccc21 [Compound 117, 3-[1-(3-methoxypropyl)-1H-indazol-3-yl]-4-[1-(3-pyridinyl)-1H-indol-3-yl]-1H-pyrrole-2,5-dione] |
